Reference: patent publication US6048894A, “Substituted amide derivatives” (Banyu Pharmaceutical Co., Ltd., priority 1996, dated 2000)

Molecular target: T1, protein-farnesyl transferase (PFT) (Rattus norvegicus, UniProt Q02293+Q04631)
T1 construct: a soluble fraction of rat's brain was fractionated; from tissue; host or cells: rat brain, soluble fraction, 30-50% ammonium sulfate cut, Q-Sepharose chromatography
Assay: Inhibitory activities against protein-farnesyl transferase (PFT), IC50
Assay type: biochemical
Settings: PFT from rat brain (Q-sepharose fraction); prenyl acceptor H-ras protein or biotin-added Lys-Thr-Ser-Cys-Val-Ile-Met (not stated which for Table 1); [3H]-FPP 0.6 μM; 37° C., 20 min; read-out: 50% inhibitory concentrations against PFT activities, IC50
Experimental: PFT was separated in such a manner that a soluble fraction of rat's brain was fractionated by means of 30%-50% saturated ammonium sulfate, further dialyzed and then subjected to column chromatography by Q-sepharose™ (manufactured by Pharmacia) (Reiss et al., Cell, vol. 62, pp. 81-88 (1990)).
Measurement of PFT activities was conducted by using, as a prenyl acceptor, H-ras protein or a peptide corresponding to the C-terminal 7 amino acid residues of K-rasB protein which had biotin added to the N-terminal (biotin-added Lys-Thr-Ser-Cys-Val-Ile-Met) and, as a prenyl donor, [^3 H]-labeled farnesyl pyrophosphate (FPP) (Reiss et al., Methods: A companion to Methods in Enzymology, vol. 1, No. 3, pp. 241-245 (1990)).
The [^3 H]-labeled farnesyl pyrophosphate (22.5 Ci/mmol) was purchased from New England Nuclear Co. Non-labeled farnesyl pyrophosphate was chemically synthesized from ditrethylammonium phosphate, trans-trans-farnesol and trichloroacetonitrile and purified by a XAD-2-resin column and diethylaminoethylcellulose (Cornforth et al., Methods in Enzymology, vol. 15, pp. 385-390 (1969)). […]
The enzymatic reaction product containing H-ras protein as the prenyl acceptor, was analyzed by SDS-PAGE (sodium dodecyl sulfate/polyacrylamide gel electrophoresis). […]
The measurement of PFT activities using H-ras protein as the prenyl receptor, was also analyzed by a rapid separate method. […]

IC50	SMILES
3.1 nM	CCOC(=O)C(CC(=O)O)=C(O)C(=O)N(Cc1ccc2ccccc2c1)[C@H](C)[C@@H](Cc1ccc(C(=O)Nc2ccccc2)o1)C(=O)OC(C)C (racemic) [Example 2, 3-(ethoxycarbonyl)-4-hydroxy-4-[N-[(1RS,2RS)-2-(isopropoxycarbonyl)-1-methyl-3-{5-(phenylcarbamoyl)-2-furyl}propyl]-N-(2-naphthylmethyl)carbamoyl]-3-butenoic acid]
7.8 nM	CCOC(=O)/C=C/[C@@H](Cc1ccc(C(=O)Nc2ccccc2)o1)[C@@H](C)N(Cc1ccc2ccccc2c1)C(=O)C(O)=C(CC(=O)O)C(=O)OCC (relative stereo) [Example 4]
